Experimental data published in patent US7964607B2, “Pyrazolo[3,4-d]pyrimidine compounds” (Pfizer Inc., priority 2007, dated 2011).

Biological target: T1, human recombinant PDE9 enzyme (Homo sapiens, UniProt O76083)
T1 construct: made in house; host or cells: SF-9 insect cells
Assay: Phosphodiesterase 9 (PDE9) inhibitory activity, Scintillation Proximity (SPA) assay
Type: biochemical
Settings: human recombinant PDE9 from SF-9 cells; 50 nM [3H]cGMP; room temperature, 30 min; additional compounds Ex. 115-228; read-out: G5678A (U):IC50
Summary of the method: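 Recombinant human PDE9 from SF-9 cell lysate supernatant, diluted so that ≤20% of [3H]cGMP substrate was hydrolysed to 5′GMP. Reaction started with enzyme and run 30 min at room temperature with 2% DMSO final. SPA beads were counted after >300 min; background came from a high concentration of a PDE inhibitor.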

T1 sequence (O76083 whole entry): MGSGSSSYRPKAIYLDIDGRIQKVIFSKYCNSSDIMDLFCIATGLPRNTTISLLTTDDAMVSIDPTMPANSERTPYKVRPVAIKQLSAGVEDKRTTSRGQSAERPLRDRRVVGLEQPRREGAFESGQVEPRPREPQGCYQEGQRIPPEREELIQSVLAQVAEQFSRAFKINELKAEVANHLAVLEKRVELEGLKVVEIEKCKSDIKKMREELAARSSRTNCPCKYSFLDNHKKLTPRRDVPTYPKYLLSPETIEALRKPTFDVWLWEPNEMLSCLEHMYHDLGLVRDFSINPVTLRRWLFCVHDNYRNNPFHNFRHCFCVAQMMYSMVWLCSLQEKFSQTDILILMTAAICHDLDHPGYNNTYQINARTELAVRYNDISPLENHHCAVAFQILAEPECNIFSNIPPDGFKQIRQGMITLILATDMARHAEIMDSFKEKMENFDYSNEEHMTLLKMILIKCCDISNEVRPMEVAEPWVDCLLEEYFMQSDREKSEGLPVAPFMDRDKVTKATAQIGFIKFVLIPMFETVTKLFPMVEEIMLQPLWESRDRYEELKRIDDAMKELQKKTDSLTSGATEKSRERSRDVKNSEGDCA

Structure (SMILES)	IC50 [nM]
COc1cccc(F)c1CN1C[C@@H](C)[C@H](c2nc3c(cnn3C3CCCC3)c(=O)[nH]2)C1 (racemic) [Example 146, 1-cyclopentyl-6-[(3,4-trans)-1-(2-fluoro-6-methoxybenzyl)-4-methylpyrrolidin-3-yl]-1,5-dihydro-4H-pyrazolo[3,4-d]pyrimidin-4-one]	165
C[C@@H]1CN(Cc2ccc(F)cc2F)C[C@H]1c1nc2c(cnn2C2CCCC2)c(=O)[nH]1 (racemic) [Example 147, 1-cyclopentyl-6-[(3,4-trans)-1-(2,4-difluorobenzyl)-4-methylpyrrolidin-3-yl]-1,5-dihydro-4H-pyrazolo[3,4-d]pyrimidin-4-one]	79.8
COc1cc(CN2C[C@@H](C)[C@H](c3nc4c(cnn4C4CCCC4)c(=O)[nH]3)C2)ccc1F (racemic) [Example 148, 1-cyclopentyl-6-[(3,4-trans)-1-(4-fluoro-3-methoxybenzyl)-4-methylpyrrolidin-3-yl]-1,5-dihydro-4H-pyrazolo[3,4-d]pyrimidin-4-one]	36
C[C@@H]1CN(Cc2cccc3c2OCCO3)C[C@H]1c1nc2c(cnn2C2CCCC2)c(=O)[nH]1 (racemic) [Example 149, 1-cyclopentyl-6-[(3,4-trans)-1-(2,3-dihydro-1,4-benzodioxin-5-ylmethyl)-4-methylpyrrolidin-3-yl]-1,5-dihydro-4H-pyrazolo[3,4-d]pyrimidin-4-one]	47.1
C[C@@H]1CN(Cc2ccc(F)cc2Cl)C[C@H]1c1nc2c(cnn2C2CCCC2)c(=O)[nH]1 (racemic) [Example 150, 6-[(3,4-trans)-1-(2-chloro 4-fluorobenzyl)-4-methylpyrrolidin-3-yl]-1-cyclopentyl-1,5-dihydro-4H-pyrazolo[3,4-] pyrimidin-4-one]	93.5
Cc1ccc(CN2C[C@@H](C)[C@H](c3nc4c(cnn4C4CCCC4)c(=O)[nH]3)C2)c(C)c1 (racemic) [Example 151, 1-cyclopentyl-6-[(3,4-trans)-1-(2,4-dimethylbenzyl)-4-methylpyrrolidin-3-yl]-1,5-dihydro-4H-pyrazolo[3,4-d]pyrimidin-4-one]	117
COc1cc(CN2C[C@@H](C)[C@H](c3nc4c(cnn4C4CCCC4)c(=O)[nH]3)C2)cc(OC)c1 (racemic) [Example 152, 1-cyclopentyl-6-[(3,4-trans)-1-(3,5-dimethoxybenzyl)-4-methylpyrrolidin-3-yl]-1,5-dihydro-4H-pyrazolo[3,4-d]pyrimidin-4-one]	42.2
CCOc1cccc(CN2C[C@@H](C)[C@H](c3nc4c(cnn4C4CCCC4)c(=O)[nH]3)C2)c1 (racemic) [Example 153, 1-cyclopentyl-6-[(3,4-trans)-1-(3-ethoxybenzyl)-4-methylpyrrolidin-3-yl]-1,5-dihydro-4H-pyrazolo[3,4-d]pyrimidin-4-one]	54.4
C[C@@H]1CN(Cc2ccc(Cl)cc2F)C[C@H]1c1nc2c(cnn2C2CCCC2)c(=O)[nH]1 (racemic) [Example 154, 6-[(3,4-trans)-1-(4-chloro-2-fluorobenzyl)-4-methylpyrrolidin-3-yl]-1-cyclopentyl-1,5-dihydro-4H-pyrazolo[3,4-d]pyrimidin-4-one]	175
C[C@@H]1CN(Cc2cccc(C#N)c2)C[C@H]1c1nc2c(cnn2C2CCCC2)c(=O)[nH]1 (racemic) [Example 155, 3-{[(3,4-trans)-3-(1-cyclopentyl-4-oxo-4,5-dihydro-1H-pyrazolo[3,4-d]pyrimidin-6-yl)-4-methylpyrrolidin-1-yl]methyl}benzonitrile]	27.9
C[C@@H]1CN(Cc2cc(F)ccc2F)C[C@H]1c1nc2c(cnn2C2CCCC2)c(=O)[nH]1 (racemic) [Example 156, 1-cyclopentyl-6-[(3,4-trans)-1-(2,5-difluorobenzyl)-4-methylpyrrolidin-3-yl]-1,5-dihydro-4H-pyrazolo[3,4-d]pyrimidin-4-one]	40.8
C[C@@H]1CN(Cc2ccccc2C#N)C[C@H]1c1nc2c(cnn2C2CCCC2)c(=O)[nH]1 (racemic) [Example 157, 2-{[(3,4-trans)-3-(1-cyclopentyl-4-oxo-4,5-dihydro-1H-pyrazolo[3,4-d]pyrimidin-6-yl)-4-methylpyrrolidin-1-yl]methyl}benzonitrile]	56.4
C[C@@H]1CN(Cc2ccc(F)c(Cl)c2)C[C@H]1c1nc2c(cnn2C2CCCC2)c(=O)[nH]1 (racemic) [Example 158, 6-[(3,4-trans)-1-(3-chloro-4-fluorobenzyl)-4-methylpyrrolidin-3-yl]-1-cyclopentyl-1,5-dihydro-4H-pyrazolo[3,4-d]pyrimidin-4-one]	50.9
C[C@@H]1CN(Cc2ccc(OC(F)F)cc2)C[C@H]1c1nc2c(cnn2C2CCCC2)c(=O)[nH]1 (racemic) [Example 159, 1-cyclopentyl-6-{(3,4-trans)-1-[4-(difluoromethoxy)benzyl]-4-methylpyrrolidin-3-yl}-1,5-dihydro-4H-pyrazolo[3,4-d]pyrimidin-4-one]	59.9
Cc1cccc(CN2C[C@@H](C)[C@H](c3nc4c(cnn4C4CCCC4)c(=O)[nH]3)C2)c1 (racemic) [Example 160, 1-cyclopentyl-6-[(3,4-trans)-4-methyl-1-(3-methylbenzyl)pyrrolidin-3-yl]-1,5-dihydro-4H-pyrazolo[3,4-d]pyrimidin-4-one]	43.4
C[C@@H]1CN(Cc2ccc(F)c(F)c2)C[C@H]1c1nc2c(cnn2C2CCCC2)c(=O)[nH]1 (racemic) [Example 161, 1-cyclopentyl-6-[(3,4-trans)-1-(3,4-difluorobenzyl)-4-methylpyrrolidin-3-yl]-1,5-dihydro-4H-pyrazolo[3,4-d]pyrimidin-4-one]	40.4
Cc1ccc(C)c(CN2C[C@@H](C)[C@H](c3nc4c(cnn4C4CCCC4)c(=O)[nH]3)C2)c1 (racemic) [Example 162, 1-cyclopentyl-6-[(3,4-trans)-1-(2,5-dimethylbenzyl)-4-methylpyrrolidin-3-yl]-1,5-dihydro-4H-pyrazolo[3,4-d]pyrimidin-4-one]	60.1
C[C@@H]1CN(Cc2cccc(Cl)c2F)C[C@H]1c1nc2c(cnn2C2CCCC2)c(=O)[nH]1 (racemic) [Example 163, 6-[(3,4-trans)-1-(3-chloro-2-fluorobenzyl)-4-methylpyrrolidin-3-yl]-1-cyclopentyl-1,5-dihydro-4H-pyrazolo[3,4-d]pyrimidin-4-one]	53.4
C[C@@H]1CN(Cc2cccc(Cl)c2Cl)C[C@H]1c1nc2c(cnn2C2CCCC2)c(=O)[nH]1 (racemic) [Example 164, 1-cyclopentyl-6-[(3,4-trans)-1-(2,3-dichlorobenzyl)-4-methylpyrrolidin-3-yl]-1,5-dihydro-4H-pyrazolo[3,4-d]pyrimidin-4-one]	78.9
C[C@@H]1CN(Cc2nccs2)C[C@H]1c1nc2c(cnn2C2CCCC2)c(=O)[nH]1 (racemic) [Example 165, 1-cyclopentyl-6-[(3,4-trans)-4-methyl-1-(1,3-thiazol-2-ylmethyl)pyrrolidin-3-yl]-1,5-dihydro-4H-pyrazolo[3,4-d]pyrimidin-4-one]	54.2
Cc1c(F)cccc1CN1C[C@@H](C)[C@H](c2nc3c(cnn3C3CCCC3)c(=O)[nH]2)C1 (racemic) [Example 166, 1-cyclopentyl-6-[(3,4-trans)-1-(3-fluoro-2-methylbenzyl)-4-methylpyrrolidin-3-yl]-1,5-dihydro-4H-pyrazolo[3,4-d]pyrimidin-4-one]	68.3
Cc1ncc(CN2C[C@@H](C)[C@H](c3nc4c(cnn4C4CCCC4)c(=O)[nH]3)C2)cn1 (racemic) [Example 167, 1-cyclopentyl-6-{(3,4-trans)-4-methyl-1-[(2-methylpyrimidin-5-yl)methyl]pyrrolidin-3-yl}-1,5-dihydro-4H-pyrazolo[3,4-d]pyrimidin-4-one]	40.7
CCc1ncc(CN2C[C@@H](C)[C@H](c3nc4c(cnn4C4CCCC4)c(=O)[nH]3)C2)cn1 (racemic) [Example 168, 1-cyclopentyl-6-{(3,4-trans)-1-[(2-ethylpyrimidin-5-yl)methyl]-4-methylpyrrolidin-3-yl}-1,5-dihydro-4H-pyrazolo[3,4-d]pyrimidin-4-one]	30.7
CC(C)c1ccc(CN2C[C@@H](C)[C@H](c3nc4c(cnn4C4CCCC4)c(=O)[nH]3)C2)cc1 (racemic) [Example 169, 1-cyclopentyl-6-[(3,4-trans)-1-(4-isopropylbenzyl)-4-methylpyrrolidin-3-yl]-1,5-dihydro-4H-pyrazolo[3,4-d]pyrimidin-4-one]	117
CCn1cc(CN2C[C@@H](C)[C@H](c3nc4c(cnn4C4CCCC4)c(=O)[nH]3)C2)cn1 (racemic) [Example 170, 1-cyclopentyl-6-{(3,4-trans)-1-[(1-ethyl-1H-pyrazol-4-yl)methyl]-4-methylpyrrolidin-3-yl}-1,5-dihydro-4H-pyrazolo[3,4-d]pyrimidin-4-one]	74.6
COc1ccncc1CN1C[C@@H](C)[C@H](c2nc3c(cnn3C3CCCC3)c(=O)[nH]2)C1 (racemic) [Example 171, 1-cyclopentyl-6-{(3,4-trans)-1-[(4-methoxypyridin-3-yl)methyl]-4-methylpyrrolidin-3-yl}-1,5-dihydro-4H-pyrazolo[3,4-d]pyrimidin-4-one]	51.3
C[C@@H]1CN(Cc2ccno2)C[C@H]1c1nc2c(cnn2C2CCCC2)c(=O)[nH]1 (racemic) [Example 172, 1-cyclopentyl-6-[(3,4-trans)-1-(isoxazol-5-ylmethyl)-4-methylpyrrolidin-3-yl]-1,5-dihydro-4H-pyrazolo[3,4-d]pyrimidin-4-one]	67
CCOc1ccc(CN2C[C@@H](C)[C@H](c3nc4c(cnn4C4CCCC4)c(=O)[nH]3)C2)cc1 (racemic) [Example 173]	64
C[C@@H]1CN(Cc2ccc(C(C)(C)O)nc2)C[C@H]1c1nc2c(cnn2C2CCCC2)c(=O)[nH]1 (racemic) [Example 174, 1-cyclopentyl-6-[(3,4-trans)-1-{[6-(1-hydroxy-1-methylethyl)pyridin-3-yl]methyl}-4-methylpyrrolidin-3-yl]-1,5-dihydro-4H-pyrazolo[3,4-d]pyrimidin-4-one]	42
